Structures are written as SMILES.

We go through one molecule from patent US12084444B2, “Spiro-lactam NMDA modulators and methods of using same” (Tenacia Biotechnology (Hong Kong) Co., Limited, priority 2016, dated 2024).

Data set [1] deals with T1, NMDAR2C expressing HEK cell membranes (Homo sapiens, UniProt Q14957).
T1 construct: expressed in transfected cells; host or cells: HEK cells (membrane extract)
Briefly: NMDAR agonist assay, [3H]MK-801 binding, NMDAR2C. In kind it is biochemical. The note with it: 50 μM glutamate. The method, then:
Assays were conducted as described by Moskal et al., “GLYX-13: a monoclonal antibody-derived peptide that acts as an N-methyl-D-aspartate receptor modulator,” Neuropharmacology, 49, 1077-87, 2005. These studies were designed to determine if the test compounds act to facilitate NMDAR activation in NMDAR2A, NMDAR2B, NMDAR2C or NMDAR2D expressing HEK cell membranes as measured by increases in [^3H]MK-801 binding.
In the assay, 300 μg of NMDAR expressing HEK cell membrane extract protein was preincubated for 15 minutes at 25° C. in the presence of saturating concentrations of glutamate (50 μM) and varying concentrations of test compound (1×10^−15 M-1×10^−7 M), or 1 mM glycine. Following the addition of 0.3 μCi of [^3H]MK-801 (22.5 Ci/mmol), reactions were again incubated for 15 minutes at 25° C. (nonequilibrium conditions). Bound and free [^3H]MK-801 were separated via rapid filtration using a Brandel apparatus.
In analyzing the data, the DPM (disintegrations per minute) of [^3H]MK-801 remaining on the filter were measured for each concentration of test compound or for 1 mM glycine. The DPM values for each concentration of a ligand (N=2) were averaged. The baseline value was determined from the best fit curve of the DPM values modeled using the GraphPad program and the log(agonist) vs. response(three parameters) algorithm was then subtracted from all points in the dataset. The % maximal [^3H]MK-801 binding was then calculated relative to that of 1 mM glycine: all baseline subtracted DPM values were divided by the average value for 1 mM glycine. The EC50 and % maximal activity were then obtained from the best fit curve of the % maximal [^3H]MK-801 binding data modelled using the GraphPad program and the log(agonist) vs. response(three parameters) algorithm. […]

Data set [2] has as its target T2, NMDAR2B expressing HEK cell membranes (Homo sapiens, UniProt Q05586+Q13224).
T2 construct: expressed in transfected cells; host or cells: HEK cells (membrane extract)
Briefly: NMDAR agonist assay, [3H]MK-801 binding, NMDAR2B. The format is biochemical. Conditions: 50 μM glutamate. Summed up: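 HEK membranes (300 μg protein) expressing each subtype were preincubated 15 min at 25 °C with 50 μM glutamate and compound (1×10^−15–1×10^−7 M) or 1 mM glycine. [3H]MK-801 (0.3 μCi) binding then ran 15 min under nonequilibrium conditions, followed by filtration. EC50 and % maximal binding against 1 mM glycine came from three-parameter fits of baseline-subtracted DPM (N=2).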

Data set [3] in a line: IV pharmacokinetics. More on the design: species or system Sprague Dawley rats. The note with it: Sprague Dawley, in vivo, rat, 2 mg/kg, normal saline. The method, then: Sprague Dawley rats were dosed intravenously using a normal saline formulation containing 2 mg/kg of the compounds identified in the below table. The table below summarizes the results of the IV pharmacokinetics.

T2 sequence (Q13224 27-1484, other chains not shown): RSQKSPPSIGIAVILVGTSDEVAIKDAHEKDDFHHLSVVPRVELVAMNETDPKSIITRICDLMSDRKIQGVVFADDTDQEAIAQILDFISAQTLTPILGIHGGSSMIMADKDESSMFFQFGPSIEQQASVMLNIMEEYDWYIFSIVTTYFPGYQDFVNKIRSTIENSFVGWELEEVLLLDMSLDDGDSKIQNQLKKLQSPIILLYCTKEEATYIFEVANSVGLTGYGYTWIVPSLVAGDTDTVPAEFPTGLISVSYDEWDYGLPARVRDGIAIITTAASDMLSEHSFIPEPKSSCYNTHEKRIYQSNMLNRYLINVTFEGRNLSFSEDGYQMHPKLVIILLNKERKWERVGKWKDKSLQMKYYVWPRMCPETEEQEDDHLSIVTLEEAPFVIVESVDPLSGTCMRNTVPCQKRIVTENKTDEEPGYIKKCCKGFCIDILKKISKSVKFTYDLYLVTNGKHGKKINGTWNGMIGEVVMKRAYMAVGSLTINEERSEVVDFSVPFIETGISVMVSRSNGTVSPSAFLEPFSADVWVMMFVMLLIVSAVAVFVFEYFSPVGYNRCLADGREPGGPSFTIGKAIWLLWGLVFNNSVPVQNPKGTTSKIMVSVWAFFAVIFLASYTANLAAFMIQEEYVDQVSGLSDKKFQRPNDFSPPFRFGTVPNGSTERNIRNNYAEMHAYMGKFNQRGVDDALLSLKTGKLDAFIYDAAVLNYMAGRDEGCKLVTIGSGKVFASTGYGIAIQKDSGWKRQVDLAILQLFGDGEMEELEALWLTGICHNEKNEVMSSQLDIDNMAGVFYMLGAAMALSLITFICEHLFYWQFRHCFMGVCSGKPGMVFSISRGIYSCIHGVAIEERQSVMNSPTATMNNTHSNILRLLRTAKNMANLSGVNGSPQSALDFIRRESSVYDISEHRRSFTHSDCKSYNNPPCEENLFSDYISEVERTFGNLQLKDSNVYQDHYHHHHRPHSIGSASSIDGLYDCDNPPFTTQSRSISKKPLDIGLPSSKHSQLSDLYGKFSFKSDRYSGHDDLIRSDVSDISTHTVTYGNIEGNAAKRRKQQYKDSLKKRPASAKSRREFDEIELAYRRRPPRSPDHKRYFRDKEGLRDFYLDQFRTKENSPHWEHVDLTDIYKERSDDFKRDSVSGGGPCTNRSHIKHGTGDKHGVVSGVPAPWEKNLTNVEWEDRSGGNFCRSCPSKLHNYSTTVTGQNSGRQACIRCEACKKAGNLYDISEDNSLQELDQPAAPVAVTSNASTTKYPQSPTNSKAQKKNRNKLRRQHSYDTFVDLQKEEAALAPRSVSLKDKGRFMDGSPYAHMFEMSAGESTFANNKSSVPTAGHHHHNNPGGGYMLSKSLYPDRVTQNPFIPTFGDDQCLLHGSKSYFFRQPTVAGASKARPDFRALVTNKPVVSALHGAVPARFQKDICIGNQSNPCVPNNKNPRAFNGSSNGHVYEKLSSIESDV
T1 sequence (Q14957 20-1233, other chains not shown): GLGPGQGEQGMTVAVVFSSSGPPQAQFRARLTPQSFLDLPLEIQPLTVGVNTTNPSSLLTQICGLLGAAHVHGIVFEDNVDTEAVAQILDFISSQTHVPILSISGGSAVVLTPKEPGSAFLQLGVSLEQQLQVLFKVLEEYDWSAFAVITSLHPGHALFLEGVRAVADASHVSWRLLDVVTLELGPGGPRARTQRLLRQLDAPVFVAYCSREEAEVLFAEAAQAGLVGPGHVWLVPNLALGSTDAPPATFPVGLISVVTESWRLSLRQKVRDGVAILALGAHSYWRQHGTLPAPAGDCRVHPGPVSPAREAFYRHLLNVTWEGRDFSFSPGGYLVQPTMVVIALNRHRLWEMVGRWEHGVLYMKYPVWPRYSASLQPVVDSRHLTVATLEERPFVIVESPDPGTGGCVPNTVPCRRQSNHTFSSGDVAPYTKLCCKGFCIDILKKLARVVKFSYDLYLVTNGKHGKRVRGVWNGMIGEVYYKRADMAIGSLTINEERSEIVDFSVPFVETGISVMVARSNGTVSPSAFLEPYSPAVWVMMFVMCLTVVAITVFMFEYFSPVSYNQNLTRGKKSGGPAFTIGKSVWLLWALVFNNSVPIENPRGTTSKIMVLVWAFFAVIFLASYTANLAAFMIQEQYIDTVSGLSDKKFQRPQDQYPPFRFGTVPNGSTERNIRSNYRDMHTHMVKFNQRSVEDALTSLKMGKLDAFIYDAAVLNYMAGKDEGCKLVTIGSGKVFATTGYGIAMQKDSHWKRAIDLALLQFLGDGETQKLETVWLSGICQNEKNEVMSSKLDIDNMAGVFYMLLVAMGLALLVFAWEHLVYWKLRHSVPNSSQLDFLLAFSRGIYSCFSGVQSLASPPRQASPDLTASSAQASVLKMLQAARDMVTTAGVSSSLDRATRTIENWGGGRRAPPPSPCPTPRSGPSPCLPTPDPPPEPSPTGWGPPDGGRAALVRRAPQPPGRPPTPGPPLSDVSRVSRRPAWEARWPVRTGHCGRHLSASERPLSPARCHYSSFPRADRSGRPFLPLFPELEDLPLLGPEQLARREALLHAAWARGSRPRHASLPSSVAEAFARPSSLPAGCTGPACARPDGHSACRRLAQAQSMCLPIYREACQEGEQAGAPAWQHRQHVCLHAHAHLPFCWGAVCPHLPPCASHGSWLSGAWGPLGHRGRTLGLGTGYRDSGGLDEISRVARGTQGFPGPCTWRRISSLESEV

A word on the EC50: it is the concentration that produces a half-maximal response. Usually AUC(0-t) stands for exposure summed from dosing to a finite time, without extrapolation to infinity. What is called clearance is the volume of plasma or blood freed of the substance per unit of time. As a reminder, the half-life is the time in which the quantity being followed falls by half. As to `COc1ccc(CN2C[C@@]3(CCNC(=O)C3)C2=O)cc1` [Compound AA-2, 2-(4-methoxybenzyl)-2,7-diazaspiro[3.5]nonane-1,6-dione], the “NMDAR2C A: % maximal [3H]MK-801 binding relative to 1 mM glycine” value in data set [1] was “− (−=0)”. Also, in data set [2] (read-out: NMDAR2B B: log EC50 (converted)), the EC50 is below 1 nM. For the same molecule, the Emax in data set [2] (0.25 h, read-out: NMDAR2B A: % maximal [3H]MK-801 binding relative to 1 mM glycine) was below 100%. In data set [3], this molecule gave an AUC(0-t) of 3370 ng·h/mL, a C0 of 1990 ng/mL, a clearance of 9.82 mL/min/kg and a half-life of 1.25 h. Besides, the Vd in data set [3] (read-out: Vss) amounted to 0.54 L/kg.
